Our source for the IC50 and inhibition values is patent publication US5359073A, “Substituted-phenyl (N,N'-cycloalkyl/alkyl carboxamide)-1H/3H-imidazo[4,5-b]pyridine compounds as PAF antagonists” (G. D. Searle & Co., priority 1992, dated 1994).

Molecules are shown by their SMILES.

Test [1] has as its target T1, PAF receptor (human platelet membrane) (Homo sapiens, UniProt P25105).
T1 construct: The platelets were broken by freezing in a dry ice-ethanol bath; tissue Lifesource, Inc. (Glenview, Ill.); host or cells: human packed platelets (membrane preparation)
Put plainly: Assay A: Human Platelet Receptor Binding (inhibition of specific [^3 H]PAF binding to human platelet membrane preparation). Conditions: for IC50: human platelet membranes, 0.75 nM [^3 H]PAF, 30 minutes at 24° C., pH 7.4. The method, then: Compounds of the invention were evaluated for their ability to inhibit specific binding of [^3 H]PAF to human platelet membrane preparation. Human packed platelets were obtained from Lifesource, Inc. (Glenview, Ill.) and washed 3 times with 10 mM Trizma pH 7.0, 2 mM EDTA (dipotassium salt), 150 mM KCL and then once with 10 mM Trizma 7.4, 20 mM CaCL2. The platelets were broken by freezing in a dry ice-ethanol bath, followed by thawing in 24° C. water baths. The preparation was centrifugation (40,000 x g, 20 minutes, 4° C.) and the pellet resuspended in 10 mM Trizma 7.4, 20 mM CaCL2, 5 mg/ml human albumin. Protein concentration in the platelet membrane preparation was determined by the Lowry method [ref]. Aliquots of the membrane preparation were stored at -70° C. Each preparation was characterized for PAF receptor number and dissociation constant (Kd). In binding assays 5 μl of test compound, solubilzed in DMSO, was added to polypropylene tubes along with 0.75 nM [^3 H]PAF and 200 mcl [0.075 nM] of membranes and 95 μl 10 mM Trizma 7.4, 20 mM CaCL2, 5 mg/ml human albumin. Tubes were incubated for 30 minutes at 24° C. The incubation was terminated by adding 4 ml of ice-cold 10 mM Trizma DH 7.4, 20 mM CaCL2 and 20 mg/ml BSA prior to vacuum filtration using Whatman GF/C filters. Filters were prepared and counted for a scintillation counter. All DPM values were corrected for background and isotope decay. Triplicate determinations for single doses were averaged. The amount of non-specific binding was subtracted from all dose averages, giving an amount of specific binding in all cases. The IC50 values for compounds of the invention determined by the Allfit program using percent displacement data. Allfit is a `basic` computer program for simultaneous curve fitting of a family of signoidal dose-response curves using the four parameter logistic equation.

The target in test [2] is T2, [^3 H]PAF receptors on human neutrophil membrane (Homo sapiens, UniProt P25105).
T2 construct: Human neutrophils were isolated from venous blood by dextran sedimentation; from tissue; host or cells: human neutrophils from venous blood (membrane preparation)
Put plainly: Assay C: Human Neutrophil Receptor Binding (inhibition of specific [^3 H]PAF binding to human neutrophil membrane). The conditions noted are these: human neutrophil membranes, 0.9 nM [^3 H]PAF, 30 minutes at 24°, pH 7.4. The method, then: Compounds of the invention were evaluated for their ability to inhibit PAF-induced specific binding of [^3 H]PAF to receptors on human neutrophil membrane. Human neutrophils were isolated from venous blood by dextran sedimentation followed by density gradient centrifugation using Ficoll-Hypaque [J. Biol. Chem., 254:7865-7869, 1979]. Residual red blood cells were removed by hypotonic lysis. Neutrophils were suspended in 50 mM Tris-HCl buffer, pH 7.7, and cells disrupted by sonication for 15 seconds on ice. Unbroken cells and nuclei were removed by slow speed centrifugation [1000xg, 10 min. 4°]. The resultant supernatant was centrifuged at 100,000xg for 60 minutes at 4°. The pellet was suspended in 10 mM Tris-HCl, pH 7.4, with 10 mM MgCl2. Protein content was determined by the method of Lowry [J. Biol. Chem., 193:265-275, 1951]. Membranes were characterized for the concentration of binding sites [Bmax] and affinity for the ligand [Kd] using [^3 H]PAF by Scatchard analysis. Binding assays were conducted by incubating 50 mcg of membranes with 0.9 nM [^3 H]PAF and test compounds in 10 mM Tris-HCl buffer, pH 7.4, containing 0.1% bovine serum albumin. Nonspecific binding was determined by the addition of 1 μM PAF. Binding assay were done for 30 minutes at 24°. The assay was terminated by filtration-through a Whatman GF/C glass filters and radioactivity determined by liquid scintillation counting.

For test [3], the system named is PAF-induced aggregation of human platelets. Description: Assay B: Human Platelet Aggregation Inhibition (PAF-induced aggregation in human platelet-rich plasma). The format is cell-based. The conditions noted are these: 37°. The procedure: Compounds of the invention were evaluated for their ability to inhibit PAF-induced aggregation of human platelets in a human-platelet-rich plasma. Venous blood was collected from donors who fasted for 8 hours and were instructed not to use antiinflammatory drugs for 2 weeks prior to blood draw. Blood was collected into syringes containing 0.1 ml of 3.8% [w/v] citrate and centrifuged in polypropylene tubes at 150xg for 20 minutes at room temperature. The platelet rich plasma [PRP] was collected and let sit for 20 minutes at room temperature. Platelet activating factor [PAF] was diluted in 0.9% NaCl with 0.25% bovine serum albumin. Silicon treated cuvettes with stir bars were placed in the 37° heating block of the platelet aggregometer [Bio/Data Corporation, Platelet Aggregation Profiler, Model PAP-4]. PRP and test compound were added to cuvettes and aggregation monitored for 10-15 seconds at 37° with stirring. PAF was added and aggregation monitored for an additional 3 minutes. Peak aggregation was considered the peak of the first aggregation wave usually 45-60 seconds after PAF addition. Inhibition of aggregation was determined by the following: 1-[(% aggregation in the presence of compound).div.(% maximal aggregation)]. A log/logit transformation was used to determine half maximal inhibitory concentration of a test compound [IC50 ].

T1 sequence (P25105 whole entry): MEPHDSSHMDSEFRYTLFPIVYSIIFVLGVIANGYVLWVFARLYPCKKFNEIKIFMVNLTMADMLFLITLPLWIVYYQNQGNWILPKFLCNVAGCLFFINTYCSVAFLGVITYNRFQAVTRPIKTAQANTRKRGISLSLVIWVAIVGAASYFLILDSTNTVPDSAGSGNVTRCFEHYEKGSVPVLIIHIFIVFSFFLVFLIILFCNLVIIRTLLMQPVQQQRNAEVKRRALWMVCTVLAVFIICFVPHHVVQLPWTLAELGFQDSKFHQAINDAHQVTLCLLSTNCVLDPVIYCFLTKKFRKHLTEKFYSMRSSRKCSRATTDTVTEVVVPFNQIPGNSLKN
T2 sequence (P25105 whole entry): as above

For orientation: IC50 means the concentration at which inhibition is half-maximal. A lower IC50 goes with inhibition by little substance. Consider `COc1cc(C(=O)N(C2CCCC2)C2CCCC2)ccc1Cn1cnc2cccnc21` [Example 1], for which, in test [1], the IC50 is 1030 nM. Same read-out and setting: the result for `COc1cc(C(=O)N(C(C)C)C2CCCCC2)ccc1Cn1c(CO)nc2ncccc21` [Example 17, N-cyclohexyl-4-[[2-(hydroxymethyl)-1H-imidazo [4,5-b]pyridin-1-yl]methyl]-3-methoxy-N-(1-methylethyl)benzamide] reads 6 nM; that for `COc1cc(Cn2cnc3ncccc32)ccc1C(=O)N(C1CCCCC1)C1CCCC1` [Example 13, N-cyclohexyl-N-cyclopentyl-4-(1H-imidazo[4,5-b]pyridin-1-ylmethyl)-2-methoxybenzamide], 206 nM. `COc1cc(C(=O)N(C(C)C)C2CCCCC2)ccc1Cn1c(-c2ccccc2Cl)nc2ncccc21` [Example 14, 4-[[2-(2-chlorophenyl)-1H-imidazo[4,5-b]pyridin-1-yl]methyl]-N-cyclohexyl-3-methoxy-N-(1-methylethyl)benzamide] registered an IC50 in test [1] of 395 nM. Consider `COc1cc(C(=O)N(C(C)C)C2CCCCC2)ccc1Cn1c(N(C)C)nc2ncccc21` [Example 23, N-cyclohexyl-4-[[2-(dimethylamino)-1H-imidazo[4,5-b]pyridin-1-yl]methyl]-3-methoxy-N-(1-methylethyl)benzamide], for which the IC50 in test [1] turned out to be 13 nM. On to `Cc1cc(C(=O)N(C2CCCCC2)C2CCCC2)ccc1Cn1cnc2ncccc21` [Example 9, N-cyclohexyl-N-cyclopentyl-4-(1H-imidazo[4,5-b]pyridin-1-ylmethyl)-3-methylbenzamide], for which, in test [1], the IC50 amounted to 479 nM. In the case of `COc1cc(C(=O)N(C(C)C)C2CCCCC2)ccc1Cn1c(C)nc2cccnc21` [Example 12, N-cyclohexyl-3-methoxy-N-(1-methylethyl)-4-[(2-methyl-3H-imidazo [4,5-b]pyridin-3-yl)methyl]benzamide], in test [1], the IC50 was determined as 1160 nM. Same read-out and setting: with `COc1cc(C(=O)N(C(C)C)C2CCCCC2)ccc1Cn1c(-c2ccccc2Cl)nc2cccnc21` [Example 15, 4-[[2-(2-chlorophenyl) -3H-imidazo[4,5-b]pyridin-3yl]methyl]-N-cyclohexyl-3-methoxy-N-(1-methylethyl)benzamide] the figure was 574 nM. In the case of `COc1cc(Cn2cnc3cccnc32)ccc1C(=O)N(C(C)C)C1CCCCC1` [Example 3, N-cyclohexyl-4-(3H-imidazo[4,5-b]pyridin-3-ylmethyl)-2-methoxy-N-(1-methylethyl)benzamide], the IC50 in test [1] was 2 nM; in test [2], 0.5 nM; in test [3], 7 nM. As for `COc1cc(C(=O)N(C(C)C)C2CCCCC2)ccc1Cn1c(CO)nc2cccnc21` [Example 18, N-cyclohexyl-4-[[2-(hydroxymethyl)-3H-imidazo [4,5-b]pyridin-3-yl]methyl]-3-methoxy-N-(1-methylethyl)benzamide], in test [1], the 50% inhibitory concentration (IC50) was determined as 11 nM. In test [1], `Cc1cc(C(=O)N(C2CCCCC2)C2CCCC2)ccc1Cn1cnc2cccnc21` [Example 10, N-cyclohexyl-N-cyclopentyl-4-(3H-imidazo[4,5-b]pyridin-3-ylmethyl)-3-methylbenzamide] yielded an IC50 of 5240 nM. As to `COc1cc(C(=O)N(C(C)C)C2CCCCC2)ccc1Cn1c(C)nc2ncccc21` [Example 11, N-cyclohexyl-3-methoxy-N-(1-methylethyl)-4-[(2-methyl-1H-imidazo[4,5-b]pyridin-1-yl)methyl]benzamide], the IC50 in test [1] was found to be 9 nM. With `COc1cc(Cn2cnc3ncccc32)ccc1C(=O)N(C(C)C)C1CCCCC1` [Example 4, N-cyclohexyl-4-(1H-imidazo[4,5-b]pyridin-1-ylmethyl)-2-methoxy-N-(1-methylethyl)benzamide], the IC50 in test [1] is 150 nM. With `COc1cc(C(=O)N(C2CCCC2)C2CCCC2)ccc1Cn1cnc2ncccc21` [Example 2, N, N-dicyclopentyl-4-(1H-imidazo[4,5-b]pyridin-1-ylmethyl)-3-methoxybenzamide], the IC50 amounted to 78 nM in test [1] and 227 nM in test [3]. For the compound `COc1cc(C(=O)N(C(C)C)C2CCCCC2)ccc1Cn1c(CN(C)C)nc2ncccc21` [Example 19, N-cyclohexyl-4-[[2-[(dimethylamino)methyl]-1H-imidazo[4,5-b]pyridin-1-yl]methyl]-3-methoxy-N-(1-methylethyl)benzamide], the IC50 in test [1] stood at 3 nM.

In turn, `COCc1nc2cccnc2n1Cc1ccc(C(=O)N(C(C)C)C2CCCCC2)cc1OC` [Example 22, N-cyclohexyl-3-methoxy-4-[[2-(methoxymethyl)-3H-imidazo[4,5-b]pyridin-3-yl]methyl]-N-(1-methylethyl)benzamide] showed an IC50 in test [1] of 88 nM. Turning to `COc1cc(C(=O)N(C(C)C)C2CCCCC2)ccc1Cn1cnc2ncccc21` [Example 6, N-cyclohexyl-4-(1H-imidazo[4,5-b]pyridin-1-ylmethyl)-3-methoxy-N-(1-methylethyl)benzamide], the IC50 in test [1] is 6 nM; in test [2], 8 nM; in test [3], 113 nM. The inhibition is the relative decrease from the control value, in per cent. The compound `COc1cc(C(=O)N(C(C)C)C2CCCCC2)ccc1Cn1c(CN(C)C)nc2cccnc21` [Example 20, N-cyclohexyl-4-[[2-[(dimethylamino)methyl]-3H-imidazo[4,5-b]pyridin-3-yl]methyl]-3-methoxy-N-(1-methylethyl)benzamide] yielded an inhibition at 0.01 µM in test [1] (at 10 nM, two-run average) of 62%. Further, in test [1], the IC50 came to 10 nM. For `COc1cc(C(=O)N(C(C)C)C2CCCCC2)ccc1Cn1cnc2cccnc21` [Example 5, N-cyclohexyl-4-(3H-imidazo[4,5-b]pyridin-3-ylmethyl)-3-methoxy-N-(1-methylethyl)benzamide], the IC50 in test [1] came to 420 nM.

Regarding `COCc1nc2ncccc2n1Cc1ccc(C(=O)N(C(C)C)C2CCCCC2)cc1OC` [Example 21, N-cyclohexyl-3-methoxy-4-[[2-(methoxymethyl)-1H-imidazo [4,5-b]pyridin-1-yl]methyl]-N-(1-methylethyl)benzamide], in test [1], the IC50 worked out at 9 nM. Compound `COc1cc(C(=O)N(C(C)C)C2CCCCC2)ccc1Cn1c(CO[Si](C)(C)C(C)(C)C)nc2ncccc21` [Example 16, N-cyclohexyl-4-[[2-[[[(1,1-dimethyethyl)dimethylsilyl]oxy]methyl]-1H-imidazo[4,5-b]pyridin-1-yl]methyl]-3-methoxy-N-(1-methylethyl)benzamide] returned an IC50 in test [1] of 51 nM. For `COc1cc(Cn2cnc3cccnc32)ccc1C(=O)N(C1CCCC1)C1CC(C)CC(C)C1` (stereo not shown) [Example 7, N-cyclopentyl-N-(3,5-dimethylcyclohexyl)-4-(3H-imidazo[4,5-b]pyridin-3-ylmethyl)-2-methoxybenzamide], in test [1], the IC50 came to 73 nM.
